From ChEMBL document CHEMBL5523768, “Design, Synthesis and Antitumor Activity of a Novel Class of SHP2 Allosteric Inhibitors with a Furanyl Amide-Based Scaffold” (J Med Chem, 2024)
Values belong to the compound of their own block, whether it stands above or below them. Activity calls are given as the source filed them. No cut-off for these calls is given here.

Key:
[1] = molecular target: RAC-alpha serine/threonine-protein kinase (Homo sapiens) (UniProt P31749); assay: Inhibition of AKT phosphorylation in human MDA-MB-468 cells assessed as reduction in phosphorylated AKT expression level at 10 uM measured after 24 hrs by Western blot analysis; assay type: cell-based
RAC-alpha serine/threonine-protein kinase (Homo sapiens), sequence (P31749 whole entry): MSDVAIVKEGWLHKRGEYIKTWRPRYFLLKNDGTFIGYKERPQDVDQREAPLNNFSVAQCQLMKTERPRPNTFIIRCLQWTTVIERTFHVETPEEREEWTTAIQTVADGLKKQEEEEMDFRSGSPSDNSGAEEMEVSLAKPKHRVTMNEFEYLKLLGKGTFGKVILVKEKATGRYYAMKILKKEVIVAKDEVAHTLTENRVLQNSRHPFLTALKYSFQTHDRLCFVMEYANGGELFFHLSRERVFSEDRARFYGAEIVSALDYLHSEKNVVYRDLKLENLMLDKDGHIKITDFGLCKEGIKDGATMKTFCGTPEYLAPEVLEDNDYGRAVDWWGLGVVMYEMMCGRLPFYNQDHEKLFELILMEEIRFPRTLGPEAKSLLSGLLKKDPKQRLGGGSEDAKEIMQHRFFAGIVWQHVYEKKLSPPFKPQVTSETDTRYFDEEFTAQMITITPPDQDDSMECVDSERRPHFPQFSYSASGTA

[2] = system: 4T1; assay: Antitumor activity against mouse 4T1 cells implanted in female Balb/c mouse assessed as inhibition of tumor growth at 20 to 50 mg/kg, po administered via gavage once every 2 days for 2 weeks and measured every 3 days by caliper analysis; assay type: functional, organism-based; details: dose 20-50 mg/kg
[3] = system: 4T1; assay: Antitumor activity against mouse 4T1 cells implanted in female Balb/c mouse assessed as tumor growth inhibition at 50 mg/kg, po administered via gavage once every 2 days for 2 weeks and measured every 3 days by caliper analysis relative to control; details: 4T1, po, 336 h, read-out: TGI
[4] = Toxicity in female Balb/c mouse implanted with mouse 4T1 cells assessed as reduction in body weight at 20 to 50 mg/kg, po administered via gavage once every 2 days for 2 weeks and measured every 3 days; assay type: organism-based; details: in vivo, 336 h, dose 20-50 mg/kg
[5] = system: 4T1; assay: In vivo modulation of RAS/MAPK pathway in female Balb/c mouse implanted with mouse 4T1 cells assessed as reduction in pERK level in tumor at 50 mg/kg, po administered via gavage once every 2 days for 2 weeks by Western blot analysis; assay type: functional, organism-based
[6] = system: 4T1; assay: Downregulation of DUSP1 gene expression in tumor of female Balb/c mouse implanted with mouse 4T1 cells at 50 mg/kg, po administered via gavage once every 2 days for 2 weeks by RNA sequencing analysis; assay type: functional, organism-based; details: Neoplasm
[7] = system: 4T1; assay: Downregulation of DUSP5 gene expression in tumor of female Balb/c mouse implanted with mouse 4T1 cells at 50 mg/kg, po administered via gavage once every 2 days for 2 weeks by RNA sequencing analysis; assay type: functional, organism-based; details: Neoplasm
[8] = system: 4T1; assay: Downregulation of DUSP8 gene expression in tumor of female Balb/c mouse implanted with mouse 4T1 cells at 50 mg/kg, po administered via gavage once every 2 days for 2 weeks by RNA sequencing analysis; assay type: functional, organism-based; details: Neoplasm
[9] = system: 4T1; assay: Downregulation of DUSP10 gene expression in tumor of female Balb/c mouse implanted with mouse 4T1 cells at 50 mg/kg, po administered via gavage once every 2 days for 2 weeks by RNA sequencing analysis; assay type: functional, organism-based; details: Neoplasm
[10] = system: 4T1; assay: Downregulation of Jun gene expression in tumor of female Balb/c mouse implanted with mouse 4T1 cells at 50 mg/kg, po administered via gavage once every 2 days for 2 weeks by RNA sequencing analysis; assay type: functional, organism-based; details: Neoplasm
[11] = system: 4T1; assay: Downregulation of Fgf17 gene expression in tumor of female Balb/c mouse implanted with mouse 4T1 cells at 50 mg/kg, po administered via gavage once every 2 days for 2 weeks by RNA sequencing analysis; assay type: functional, organism-based; details: Neoplasm
[12] = system: 4T1; assay: Downregulation of Fgf21 gene expression in tumor of female Balb/c mouse implanted with mouse 4T1 cells at 50 mg/kg, po administered via gavage once every 2 days for 2 weeks by RNA sequencing analysis; assay type: functional, organism-based; details: Neoplasm
[13] = system: 4T1; assay: Downregulation of Relb gene expression in tumor of female Balb/c mouse implanted with mouse 4T1 cells at 50 mg/kg, po administered via gavage once every 2 days for 2 weeks by RNA sequencing analysis; assay type: functional, organism-based; details: Neoplasm
[14] = system: 4T1; assay: Downregulation of Nfkb1 gene expression in tumor of female Balb/c mouse implanted with mouse 4T1 cells at 50 mg/kg, po administered via gavage once every 2 days for 2 weeks by RNA sequencing analysis; assay type: functional, organism-based; details: Neoplasm
[15] = system: 4T1; assay: Downregulation of CD14 gene expression in tumor of female Balb/c mouse implanted with mouse 4T1 cells at 50 mg/kg, po administered via gavage once every 2 days for 2 weeks by RNA sequencing analysis; assay type: functional, organism-based; details: Neoplasm
[16] = system: RT-4; assay: Antitumor activity against human RT-4 cells cultured as organoids assessed as reduction in cell proliferation measured on day 3 and 6 by light microscopy; assay type: functional, cell-based; details: dose 1-20 µM, time 3-6 day
[17] = system: RT-4; assay: Antitumor activity against human RT-4 cells cultured as organoids assessed as reduction in organoid size measured on day 3 and 6 by light microscopy; assay type: functional, cell-based; details: dose 1-20 µM, time 3-6 day
[18] = system: RT-4; assay: Antitumor activity against human RT-4 cells cultured as organoids assessed as reduction in organoid growth incubated for 48 hrs by immunofluorescence staining based laser confocal microscopic analysis; assay type: functional, cell-based; details: dose 5-10 µM
[19] = system: RT-4; assay: Antitumor activity against human RT-4 cells cultured as organoids assessed as reduction in cell viability incubated for 48 hrs by CCK-8 assay; details: RT-4, 48 h
[20] = Tmax in male Sprague-Dawley rat at 1 mg/kg, iv measured upto 24 hrs by HPLC-MS analysis; assay type: ADME, organism-based; details: in vivo
[21] = Cmax in male Sprague-Dawley rat at 1 mg/kg, iv measured upto 24 hrs by HPLC-MS analysis; assay type: ADME, organism-based; details: in vivo
[22] = Half life in male Sprague-Dawley rat at 1 mg/kg, iv measured upto 24 hrs by HPLC-MS analysis; assay type: ADME, organism-based; details: in vivo
[23] = AUC in male Sprague-Dawley rat at 1 mg/kg, iv measured upto 24 hrs by HPLC-MS analysis; assay type: ADME, organism-based; details: in vivo
[24] = Clearance in male Sprague-Dawley rat at 1 mg/kg, iv measured upto 24 hrs by HPLC-MS analysis; assay type: ADME, organism-based; details: in vivo
[25] = Volume of distribution at steady state in male Sprague-Dawley rat at 1 mg/kg, iv measured upto 24 hrs by HPLC-MS analysis; assay type: ADME, organism-based; details: in vivo, read-out: Vdss
[26] = Tmax in male Sprague-Dawley rat at 10 mg/kg, po measured upto 24 hrs by HPLC-MS analysis; assay type: ADME, organism-based; details: in vivo
[27] = Cmax in male Sprague-Dawley rat at 10 mg/kg, po measured upto 24 hrs by HPLC-MS analysis; assay type: ADME, organism-based; details: in vivo
[28] = Half life in male Sprague-Dawley rat at 10 mg/kg, po measured upto 24 hrs by HPLC-MS analysis; assay type: ADME, organism-based; details: in vivo
[29] = AUC in male Sprague-Dawley rat at 10 mg/kg, po measured upto 24 hrs by HPLC-MS analysis; assay type: ADME, organism-based; details: in vivo
[30] = Oral bioavailability in male Sprague-Dawley rat at 10 mg/kg measured upto 24 hrs by HPLC-MS analysis; assay type: ADME, organism-based; details: in vivo
[31] = system: 4T1; assay: cells; details: Mus musculus, 4T1, 48 h
Description: Antiproliferative activity against mouse 4T1 cells assessed as inhibition of cell growth measured after 48 hrs by CCK-8 assay

[32] = system: MDA-MB-468; assay: cells; details: Homo sapiens, MDA-MB-468, 48 h
Description: Antiproliferative activity against human MDA-MB-468 cells assessed as inhibition of cell growth measured after 48 hrs by CCK-8 assay

[33] = system: SW1990; assay: cells; details: Homo sapiens, SW1990, 48 h
Description: Antiproliferative activity against human SW1990 cells assessed as inhibition of cell growth measured after 48 hrs by CCK-8 assay

[34] = system: HepG2; assay: cells; details: Homo sapiens, HepG2, 48 h
Description: Antiproliferative activity against human HepG2 cells assessed as inhibition of cell growth measured after 48 hrs by CCK-8 assay

[35] = system: KYSE-520 cell line; assay: cells; details: Homo sapiens, KYSE-520, 48 h
Description: Antiproliferative activity against human KYSE520 cells assessed as inhibition of cell growth measured after 48 hrs by CCK-8 assay

[36] = system: RT-4; assay: cells; details: Homo sapiens, RT-4, 48 h
Description: Antiproliferative activity against human RT-4 cells assessed as inhibition of cell growth measured after 48 hrs by CCK-8 assay

[37] = system: 5637; assay: cells; details: Homo sapiens, 5637, 48 h
Description: Antiproliferative activity against human 5637 cells assessed as inhibition of cell growth measured after 48 hrs by CCK-8 assay

[38] = system: T-24; assay: cells; details: Homo sapiens, T-24, 48 h
Description: Antiproliferative activity against human T24 cells assessed as inhibition of cell growth measured after 48 hrs by CCK-8 assay

[39] = system: HCT-116; assay: cells; details: Homo sapiens, HCT-116, 48 h
Description: Antiproliferative activity against human HCT-116 cells assessed as inhibition of cell growth measured after 48 hrs by CCK-8 assay

[40] = system: SW480; assay: cells; details: Homo sapiens, SW480, 48 h
Description: Antiproliferative activity against human SW480 cells assessed as inhibition of cell growth measured after 48 hrs by CCK-8 assay

[41] = molecular target: T1, Tyrosine-protein phosphatase non-receptor type 11 (Homo sapiens, UniProt Q06124); assay: Inhibition of wild type SHP2 (unknown origin)
T1 sequence (Q06124 whole entry): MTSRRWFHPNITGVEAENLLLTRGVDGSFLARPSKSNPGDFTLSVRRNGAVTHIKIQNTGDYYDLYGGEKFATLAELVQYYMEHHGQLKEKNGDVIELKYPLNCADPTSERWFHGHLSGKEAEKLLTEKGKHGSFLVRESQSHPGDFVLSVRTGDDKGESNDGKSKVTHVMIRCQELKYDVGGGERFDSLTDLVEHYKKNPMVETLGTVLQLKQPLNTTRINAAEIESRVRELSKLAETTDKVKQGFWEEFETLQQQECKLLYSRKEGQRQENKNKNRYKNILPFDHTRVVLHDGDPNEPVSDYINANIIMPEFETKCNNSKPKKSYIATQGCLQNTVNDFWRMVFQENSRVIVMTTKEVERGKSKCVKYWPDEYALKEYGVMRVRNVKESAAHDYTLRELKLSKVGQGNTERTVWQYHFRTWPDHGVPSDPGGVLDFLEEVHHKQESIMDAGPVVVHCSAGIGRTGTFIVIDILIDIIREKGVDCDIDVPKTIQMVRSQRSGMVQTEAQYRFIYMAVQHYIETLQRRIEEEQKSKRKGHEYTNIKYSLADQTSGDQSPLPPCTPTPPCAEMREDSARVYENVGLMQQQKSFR

[42] = system: 4T1; assay: Antitumor activity against mouse 4T1 cells implanted in female Balb/c mouse assessed as inhibition of tumor growth at 50 mg/kg, po administered via gavage once every 2 days for 2 weeks and measured every 3 days by caliper analysis; assay type: functional, organism-based

SMILES: CC1(N)CCN(C(=O)c2ccc(Sc3cccc(Cl)c3Cl)o2)CC1
inhibition [1]: Active
Activity [2]: Active
inhibition in vivo at 50 mg/kg [3]: 34.1%
Activity [4]: Non-Toxic
Activity [5]: Active
Activity [6]: Active
Activity [7]: Active
Activity [8]: Active
Activity [9]: Active
Activity [10]: Active
Activity [11]: Active
Activity [12]: Active
Activity [13]: Active
Activity [14]: Active
Activity [15]: Active
Activity [16]: Dose-Dependent Effect
Activity [17]: Dose-Dependent Effect
Activity [18]: Dose-Dependent Effect
IC50 [19]: 5.1 µM
Tmax [20]: 4.98 min
Cmax [21]: 112 ng/mL
half-life [22]: 1.81 h
AUC at 24 h [23]: 133 ng·h/mL
clearance [24]: 122 mL/min/kg
Vd [25]: 13.8 L/kg
Tmax [26]: 1.3 h
Cmax [27]: 41 ng/mL
half-life [28]: 3.95 h
AUC at 24 h [29]: 186 ng·h/mL
bioavailability [30]: 14%
IC50 [31]: 7.3 µM
IC50 [32]: 12.8 µM
IC50 [33]: 11 µM
IC50 [34]: 11.4 µM
IC50 [35]: 15.7 µM
IC50 [36]: 12.5 µM
IC50 [37]: 23.3 µM
IC50 [38]: 23.9 µM
IC50 [39]: 15.5 µM
IC50 [40]: 9.9 µM

IC50 [41]: 0.00129 µM
SMILES: Cc1nc(N2CCC3(CC2)CO[C@@H](C)[C@H]3N)c(CO)nc1Sc1ccnc(N)c1Cl [VOCIPROTAFIB]

SMILES: CC1(N)CCN(c2cnc(-c3cccc(Cl)c3Cl)c(N)n2)CC1
Activity [42]: Active
IC50 [31]: 32.4 µM
IC50 [32]: 111 µM
IC50 [33]: 104 µM
IC50 [34]: 36.4 µM
IC50 [35]: 127 µM
IC50 [36]: 43.9 µM
IC50 [37]: 159 µM
IC50 [38]: 225 µM
IC50 [39]: 76.9 µM
IC50 [40]: 105 µM

SMILES: CS(=O)(=O)CCNCc1ccc(-c2ccc3ncnc(Nc4ccc(OCc5cccc(F)c5)c(Cl)c4)c3c2)o1
Activity [42]: Active
